Data on 18 compounds can be found in patent publication US20240010641A1, “N-Linked Glycosylation Inhibitors and Methods of Using Same” (YALE UNIVERSITY, priority 2020, published 2024).

Each structure is given as a SMILES string.

The assay has as its system N-linked glycosylation (OST) in CHO-ER-LucT cells. Nature of the assay: CHO-ER-LucT luminescence assay for inhibition of N-linked glycosylation. In kind it is cell-based. The following applies: for Emax: 24 h, [compound's fold change-1.0 (DMSO)]/[NGI-1 fold change-1.0 (DMSO)]*100, read-out: Max activity (% NGI-1); for AC50: CHO-ER-LucT cells, 24 hrs exposure, seven-point dose dilution, luminescence. As for the experimental part: The CHO-ER-LucT cells have been previously described (Contessa et al., 2010, Clinical Cancer Research, 16(12):3205-14) and are used for testing analog IC50 for inhibition of N-linked glycosylation in 96 or 384 well plate format. In these cells induction of luminescence is dependent on inhibition of glycosylation (and OST inhibition), and is determined after 24 hrs of exposure to the analog following the addition of luciferin substrate. The luminescent signal is then quantified using standard plate readers that detect luminescence (e.g., Biotek synergy). Experiments are performed over a seven-point dose dilution to generate dose response data and to identify IC50 values and maximal activity compared to controls. Data is transformed to log 10 values to generate a sigmoidal shaped dose response curve and fitted using nonlinear regression (curve fit) in GraphPad Prism7.
All HL compounds were tested in CHO-ER-LucT cells. IC50 (AC50) was estimated in following method: Concentration X is converted to logarithm (log10) to generate sigmoidal shape curve and dose response curve is generated using Nonlinear regression (curve fit) in Prism. EC50 (AC50) is calculated using log(agonist) vs response-(three parameters)] which uses standard Hill slope (=1).
Max activity: [compound's fold change−1.0 (DMSO)]/[NGI−1 fold change−1.0 (DMSO)]*100(%) (Eq. 1)

Broadly, the AC50 is the midpoint of the concentration-response curve, whichever way the signal moves. Take `CCc1cnc(NC(=O)c2cc(S(=O)(=O)N3CCOCC3)ccc2N(C)C2CCC2)s1` [Example 7, 2-(cyclobutyl(methyl)amino)-N-(5-ethylthiazol-2-yl)-5-(morpholinosulfonyl)benzamide]: the Emax was found to be 138% and the AC50 was 243 nM.
The like results for `CCc1cnc(NC(=O)c2cc(S(=O)(=O)N(C)C)ccc2N(C)C)s1` were, in that order, 46.1% and 6850 nM.
`CN(CC1CC1)c1ccc(S(=O)(=O)N2CCOCC2)cc1C(=O)Nc1ncc(Cc2ccccc2)s1`: the Emax is 116% and the AC50 amounted to 13000 nM.
The like results for `CCc1cnc(NC(=O)c2cc(S(=O)(=O)N(C)C)ccc2N(C)C2CCCC2)s1` [Example 2, 2-(cyclopentyl(methyl)amino)-5-(N,N-dimethylsulfamoyl)-N-(5-ethylthiazol-2-yl)benzamide] were, in that order, 129% and 120 nM.
The like results for `Cc1cnc(NC(=O)c2cc(S(=O)(=O)N(C)C)cnc2N2CCCC2)s1` were, in that order, 50.4% and 70400 nM.
In the same order, the values of `Cc1ccc(NC(=O)c2cc(S(=O)(=O)N(C)C)cnc2N2CCCC2)cc1` are 14.9% and 94500 nM.
Take `Cc1nc(NC(=O)c2cc(S(=O)(=O)N3CCOCC3)ccc2N(C)CC2CC2)sc1C` [Example 10, 2-((cyclopropylmethyl)(methyl)amino)-N-(4,5-dimethylthiazol-2-yl)-5-(morpholinosulfonyl)benzamide]: the Emax was determined as 88.7% and the AC50 stood at 128 nM.
In the same order, the values of `Cc1nc(NC(=O)c2cc(S(=O)(=O)N(C)C)ccc2N2CCC(F)(F)C2)sc1C` [Example 34, 2-(3,3-difluoropyrrolidin-1-yl)-5-(N,N-dimethylsulfamoyl)-N-(4,5-dimethylthiazol-2-yl)benzamide] are 76.9% and 738 nM.
As to `Cc1nc(NC(=O)c2cc(S(=O)(=O)N(C)C)ccc2N(C)C)sc1C`, the Emax worked out at 33.9% and the AC50 was found to be 27900 nM.
For `CCc1cnc(NC(=O)c2cc(S(=O)(=O)N(C)C)ccc2N(C)CC2CC2)s1` [Example 12, 2-((cyclopropylmethyl)(methyl)amino)-5-(N,N-dimethylsulfamoyl)-N-(5-ethylthiazol-2-yl)benzamide], the Emax was found to be 133% and the AC50 worked out at 77 nM.
In the same order, the values of `Cc1nc(NC(=O)c2cc(S(=O)(=O)N(C)C)ccc2N(C)C2CC2)sc1C` are 43.9% and 3440 nM.
In the same order, the values of `CCc1csc(NC(=O)c2cc(S(=O)(=O)N3CCOCC3)ccc2N(C)CC2CC2)n1` [Example 20, 2-((cyclopropylmethyl)(methyl)amino)-N-(4-ethylthiazol-2-yl)-5-(morpholinosulfonyl)benzamide] are 94.2% and 548 nM.
The like results for `Cc1nc(NC(=O)c2cc(S(=O)(=O)N3CCN(C)CC3)ccc2N(C)CC2CC2)sc1C` were, in that order, 76.9% and 2200 nM.
With `CCc1cnc(NC(=O)c2cc(S(=O)(=O)N3CCOCC3)ccc2N(C)C2CCCCC2)s1` [Example 6, 2-(cyclohexyl(methyl)amino)-N-(5-ethylthiazol-2-yl)-5-(morpholinosulfonyl)benzamide], the Emax is 148% and the AC50 was 215 nM.
With `C=CCN(C)c1ccc(S(=O)(=O)N2CCOCC2)cc1C(=O)Nc1ncc(CC)s1` [Example 8, 2-(allyl(methyl)amino)-N-(5-ethylthiazol-2-yl)-5-(morpholinosulfonyl)benzamide], the Emax came out at 102% and the AC50 stood at 446 nM.
For `Cc1nc(NC(=O)c2cc(S(=O)(=O)CC3CC3)ccc2N(C)C2CCCC2)sc1C`, the Emax was found to be 41% and the AC50 was determined as 2430 nM.
The like results for `Cc1nc(NC(=O)c2cc(S(=O)(=O)N3CCOCC3)ccc2N(C)C2CC2)sc1C` were, in that order, 36.7% and 2530 nM.
In the same order, the values of `CCc1cnc(NC(=O)c2cc(S(=O)(=O)N3CCOCC3)ccc2N(C)CC)s1` are 130% and 620 nM.
